Laboratory results from patent US9199981B2 (NOVARTIS AG, priority 2011, dated 2015).
pIC50: −log10 of the molar value.

Target: c-kit (Homo sapiens (Human), UniProt P10721)
Test: Mo7e cell proliferation assay (SCF dependent proliferation)
Format: cell-based
Details: Mo7e cells stimulated with human recombinant SCF, 48 hours, 1% FBS
Description: Compounds of Formula (I) and Formula (II) provided herein were assayed to measure their capacity to inhibit c-kit and PDGFR kinases using the appropriate assay described below: c-Kit inhibition was evaluated using the Mo7e cell proliferation assay, and PDGFR inhibition was evaluated using the Rat A10 cell proliferation assay and the Human TG/HA-VSMC cell proliferation assay.
Mo7e Cell Proliferation Assay
The compounds of Table 1 and Table 2 were tested for inhibition of SCF dependent proliferation using human Mo7e cells which endogenously express c-kit in a 384 well format. […] After 48 hours of incubation at 37° C., cell viability was measured by adding 25 uL of CellTiter Glo (Promega) to the cells and the luminescence was measured by a CLIPR CCD camera (Molecular Devices).
The IC50 value is given as that concentration of the test compound in question that provoke a response halfway between the baseline and maximum responses.

Sequence of c-kit (P10721 26-976): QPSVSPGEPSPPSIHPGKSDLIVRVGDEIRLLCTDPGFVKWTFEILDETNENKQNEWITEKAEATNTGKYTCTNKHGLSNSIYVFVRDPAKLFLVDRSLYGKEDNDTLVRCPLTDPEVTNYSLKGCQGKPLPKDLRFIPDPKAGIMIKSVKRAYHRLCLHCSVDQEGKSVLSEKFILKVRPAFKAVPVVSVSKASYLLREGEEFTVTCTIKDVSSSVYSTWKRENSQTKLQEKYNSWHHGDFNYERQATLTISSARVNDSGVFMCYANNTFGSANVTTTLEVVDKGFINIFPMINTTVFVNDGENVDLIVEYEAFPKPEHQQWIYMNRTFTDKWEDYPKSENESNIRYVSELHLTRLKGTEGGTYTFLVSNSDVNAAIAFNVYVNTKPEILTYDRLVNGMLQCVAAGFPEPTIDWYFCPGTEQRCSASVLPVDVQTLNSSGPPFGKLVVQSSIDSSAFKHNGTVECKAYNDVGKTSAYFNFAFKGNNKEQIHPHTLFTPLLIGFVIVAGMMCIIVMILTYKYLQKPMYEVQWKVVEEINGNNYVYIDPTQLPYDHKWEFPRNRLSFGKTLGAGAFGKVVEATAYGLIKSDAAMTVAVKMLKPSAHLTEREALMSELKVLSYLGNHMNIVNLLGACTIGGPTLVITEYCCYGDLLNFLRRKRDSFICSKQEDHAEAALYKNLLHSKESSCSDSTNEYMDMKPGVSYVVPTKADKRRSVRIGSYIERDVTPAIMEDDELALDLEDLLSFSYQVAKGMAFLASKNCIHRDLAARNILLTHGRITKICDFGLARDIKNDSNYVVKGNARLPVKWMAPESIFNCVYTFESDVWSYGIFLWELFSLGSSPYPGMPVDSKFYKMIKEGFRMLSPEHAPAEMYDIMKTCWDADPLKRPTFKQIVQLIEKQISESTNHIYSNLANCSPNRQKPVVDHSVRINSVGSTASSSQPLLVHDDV

Point of comparison: `Cc1ccc(-c2noc(C3CC(F)(F)C3)n2)cc1NC(=O)c1cnc2ccc(CN3CCOC3=O)cn12` [F154], pIC50 6.44. Against it:
- CO/N=C1/CCC(c2nc(-c3ccc(C)c(NC(=O)c4cnc5ccccn45)c3)no2)C1 (stereo not shown) [F117] — 0.25 log units higher, 6.69
- Cc1ccc(-c2noc(C3(C(F)(F)F)CC3)n2)cc1NC(=O)c1cnc2ccccn12 [F119] — 0.35 log units higher, 6.79
- Cc1ccc(-c2noc(C3CC(=O)C3)n2)cc1NC(=O)c1cnc2ccccn12 [F121] — 0.41 log units higher, 6.85
- Cc1ccc(-c2noc([C@H]3C[C@@H](N4CCCCC4)C3)n2)cc1NC(=O)c1cnc2ccccn12 [F123] — within 0.2 log units, 6.46
- Cc1ccc(-c2noc([C@H]3C[C@@H](N4CCOCC4)C3)n2)cc1NC(=O)c1cnc2ccccn12 [F124] — within 0.2 log units, 6.59
- Cc1ccc(-c2noc([C@H]3C[C@@H](N4CCN(C)CC4)C3)n2)cc1NC(=O)c1cnc2ccccn12 [F125] — within 0.2 log units, 6.41
- Cc1ccc(-c2noc(C3CC(=NOCCN4CCOCC4)C3)n2)cc1NC(=O)c1cnc2ccccn12 (stereo not shown) [F126] — 0.23 log units higher, 6.67
- Cc1ccc(-c2noc([C@H]3C[C@H](NC(=O)OC(C)(C)C)C3)n2)cc1NC(=O)c1cnc2ccccn12 [F127] — within 0.2 log units, 6.45
- Cc1ccc(-c2noc([C@H]3C[C@H](NS(C)(=O)=O)C3)n2)cc1NC(=O)c1cnc2ccccn12 [F129] — 0.40 log units higher, 6.84
- Cc1ccc(-c2noc(C3(N)CC3)n2)cc1NC(=O)c1cnc2ccccn12 [F131] — within 0.2 log units, 6.51
- COCC(=O)NC1(c2nc(-c3ccc(C)c(NC(=O)c4cnc5ccccn45)c3)no2)CC1 [F132] — within 0.2 log units, 6.26
- COCCN[C@H]1C[C@@H](c2nc(-c3ccc(C)c(NC(=O)c4cnc5ccccn45)c3)no2)C1 [F133] — within 0.2 log units, 6.35
- O=C(Nc1cc(-c2noc(C3CC(F)(F)C3)n2)ccc1F)c1cnc2ccccn12 [F134] — 0.40 log units higher, 6.84
- COC1(C(F)(F)F)CC(c2nc(-c3ccc(C)c(N(C)C(=O)c4cnc5ccccn45)c3)no2)C1 (stereo not shown) [F135] — 0.44 log units lower, 6.00
- Cc1ccc(-c2noc(C3(NC(=O)OC(C)(C)C)CCC3)n2)cc1NC(=O)c1cnc2ccccn12 [F136] — 0.33 log units higher, 6.77
- Cc1ccc(-c2noc(C3(N)CCC3)n2)cc1NC(=O)c1cnc2ccccn12 [F137] — 0.27 log units higher, 6.71
- C=C1CC(c2nc(-c3ccc(F)c(NC(=O)c4cnc5ccccn45)c3)no2)C1 [F138] — 0.55 log units higher, 6.99
- Cc1ccc(-c2noc(C3(CO)CC3)n2)cc1NC(=O)c1cnc2ccccn12 [F139] — 0.42 log units higher, 6.86
- Cc1ccc(-c2noc(CNC(=O)C3CC3(F)F)n2)cc1NC(=O)c1cnc2ccccn12 (stereo not shown) [F140] — 0.44 log units higher, 6.88
- Cc1ccc(-c2noc(CNC(=O)OC3(C)CC3)n2)cc1NC(=O)c1cnc2cc(C(F)(F)F)ccn12 [F141] — within 0.2 log units, 6.41
- COC(=O)NC1CC(c2nc(-c3ccc(C)c(NC(=O)c4cnc5ccccn45)c3)no2)C1 (stereo not shown) [F142] — 0.39 log units higher, 6.83
- Cc1ccc(-c2noc(C3CC(F)(F)C3)n2)cc1NC(=O)c1cnc2ccc(CCC(=O)OC(C)(C)C)cn12 [F143] — within 0.2 log units, 6.63
- Cc1ccc(-c2noc(C3CC(F)(F)C3)n2)cc1NC(=O)c1cnc2ccc(CN3CCN(C)CC3)cn12 [F144] — within 0.2 log units, 6.60
- Cc1ccc(-c2noc(C3CC(F)(F)C3)n2)cc1NC(=O)c1cnc2ccc(CN3CCN(CCO)CC3)cn12 [F145] — within 0.2 log units, 6.62
- COCCOCc1ccc2ncc(C(=O)Nc3cc(-c4noc(C5CC(F)(F)C5)n4)ccc3C)n2c1 [F146] — 0.54 log units higher, 6.98
- Cc1ccc(-c2noc(C3CC(F)(F)C3)n2)cc1NC(=O)c1cnc2ccc(-c3cnn(CC(=O)O)c3)cn12 [F147] — within 0.2 log units, 6.45
- Cc1ccc(-c2noc(C3(O)CC3)n2)cc1NC(=O)c1cnc2ccccn12 [F148] — within 0.2 log units, 6.52
- Cc1ccc(-c2noc(C3CC(F)(F)C3)n2)cc1NC(=O)c1cnc2cc(OC(F)F)ccn12 [F149] — within 0.2 log units, 6.42
- Cc1ccc(-c2noc(C3CC(n4cncn4)C3)n2)cc1NC(=O)c1cnc2ccccn12 (stereo not shown) [F150] — 0.34 log units higher, 6.78
- Cc1ccc(-c2noc([C@H]3C[C@@H](O)C3)n2)cc1NC(=O)c1cnc2ccc(F)cn12 [F151] — 0.30 log units higher, 6.74
- O=C(Nc1cc(-c2noc(C3CCC3)n2)ccc1F)c1cnc2ccccn12 [F152] — 0.38 log units higher, 6.82
- Cc1ccc(-c2noc(C3CC(F)(F)C3)n2)cc1NC(=O)c1cnc2ccc(CC(C)(C)O)cn12 [F153] — 0.34 log units higher, 6.78
- Cc1ccc(-c2noc(C3CC(F)(F)C3)n2)cc1NC(=O)c1cnc2cc(CC(C)(C)O)ccn12 [F155] — within 0.2 log units, 6.41
- CC1(C)CC(c2nc(-c3ccc(F)c(NC(=O)c4cnc5ccccn45)c3)no2)C1 [F156] — 0.46 log units higher, 6.90
- Cc1ccc(-c2noc([C@H]3C[C@@](C)(O)C3)n2)cc1NC(=O)c1cnc2ccc(F)cn12 [F158] — 0.32 log units higher, 6.76
- Cc1ccc(-c2noc(C3CC3O)n2)cc1NC(=O)c1cnc2ccccn12 (stereo not shown) [F159] — 0.22 log units higher, 6.66
- Cc1ccc(-c2noc(C3CC(F)(F)C3)n2)c(C)c1NC(=O)c1cnc2ccccn12 [F160] — within 0.2 log units, 6.53
- Cc1ccc(-c2noc(C3CC(F)(F)C3)n2)cc1NC(=O)c1cnc2ccc(-n3cncc3C)cn12 [F163] — 0.42 log units higher, 6.86
- COCCOCc1ccc2ncc(C(=O)Nc3cc(-c4noc(C5CC(F)(F)C5)n4)ccc3C)n2c1 [F164] — 0.56 log units higher, 7.00
- Cc1ccn2c(C(=O)Nc3cc(-c4noc(C5CC5(F)F)n4)ccc3C)cnc2c1 (stereo not shown) [F165] — 0.53 log units higher, 6.97
- Cc1ccc(-c2noc(C3(F)CCC3)n2)cc1NC(=O)c1cnc2ccccn12 [F166] — 0.51 log units higher, 6.95
- Cc1ccc(-c2noc(C3(O)CCC3)n2)cc1NC(=O)c1cnc2ccccn12 [F167] — 0.40 log units higher, 6.84
- Cc1ccc(-c2noc(C3(C(N)=O)CC3)n2)cc1NC(=O)c1cnc2ccc(F)cn12 [F168] — within 0.2 log units, 6.29
- Cc1ccc(-c2noc(C3CC(F)(F)C3)n2)cc1NC(=O)c1cnc2cc(C3CCNCC3)ccn12 [F169] — within 0.2 log units, 6.27
- Cc1ccc(-c2noc(C3CC(F)(F)C3)n2)cc1NC(=O)c1cnc2ccc(CCC(=O)O)cn12 [F171] — lower, < 5.00
- Cc1ccc(-c2noc([C@H]3C[C@@H](OCC(C)(C)O)C3)n2)cc1NC(=O)c1cnc2ccc(F)cn12 [F172] — lower, < 5.00
- Cc1ccc(-c2noc(C3CC(F)(F)C3)n2)cc1NC(=O)c1cnc2ccc(-c3nnn[nH]3)cn12 [F173] — lower, < 5.00
- COC(=O)NC1(c2nc(-c3ccc(C)c(NC(=O)c4cnc5ccccn45)c3)no2)CC(F)(F)C1 [F175, methyl (3,3-difluoro-1-(3-(3-(imidazo[1,2-a]pyridine-3-carboxamido)-4-methylphenyl)-1,2,4-oxadiazol-5-yl)cyclobutyl)carbamate] — 0.70 log units higher, 7.14
- Cc1ccc(-c2noc(C3CC(F)(F)C3)n2)cc1NC(=O)c1cnc2ccc(COCCF)cn12 [F176, N-(5-(5-(3,3-difluorocyclobutyl)-1,2,4-oxadiazol-3-yl)-2-methylphenyl)-6-((2-fluoroethoxy)methyl)imidazo[1,2-a]pyridine-3-carboxamide] — 0.73 log units higher, 7.17

Same assay, conditions: Mo7e cells stimulated with human recombinant SCF, 48 hours, 20% FBS (values marked *)

Point of comparison: `Cc1ccc(-c2noc(C3CC(C)(O)C3)n2)cc1NC(=O)c1cnc2ccccn12` (stereo not shown) [F116], pIC50 6.74. Against it:
- Cc1ccc(-c2nc(C3CC3)no2)cc1NC(=O)c1cnc2ccccn12 [F114] — 0.25 log units lower, 6.49
